Data as given in patent US20120245137A1 (Zalicus Pharmaceuticals Ltd., priority 2009, published 2012).

Columns and labels:
Type in all cases: cell-based
[1] = target: human α1G T-type channels (Homo sapiens, UniProt O43497); assay: T-type calcium channel block, whole cell patch clamp, α1G; conditions: HEK cells stably expressing human α1G; mainly non-inactivated protocol; values above 10,000 nM represented as 10000
How it was run: (§1)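 Whole-cell voltage clamp on stably transfected HEK 293 lines carrying human α1H or α1G. Two voltage protocols used: non-inactivated pre-pulse for resting block, inactivated for voltage-dependent block; test agents perfused locally in external solution (0.1-0.01% DMSO) following ~10 min rest.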

[2] = target: human α1H T-type channels (Homo sapiens, UniProt O95180); assay: T-type calcium channel block, whole cell patch clamp, α1H; conditions: HEK cells stably expressing human α1H; mainly non-inactivated protocol; values above 10,000 nM represented as 10000
How it was run: as §1

[3] = target: N-type calcium channel subunits (α1B, α2δ, and β3a) (Homo sapiens, UniProt Q00975); assay: Block of Cav2.2 channel, whole cell voltage clamp, manual and PatchXpress; conditions: Table 5; table follows Assay Example 3 (whole cell voltage clamp / PatchXpress); assay not given
How it was run: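 Percent block taken as current amplitude ratio with versus without compound, applied in rising doses; IC50 fitted where one cell received multiple doses. Protocol: 50 ms pulses to +20 mV at 0.067 Hz from […] or −90 mV holding; P/n leak subtraction, no junction-potential correction; manual and PatchXpress recordings.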

Sequence of human α1G T-type channels (O43497 whole entry, the tested form may be a part): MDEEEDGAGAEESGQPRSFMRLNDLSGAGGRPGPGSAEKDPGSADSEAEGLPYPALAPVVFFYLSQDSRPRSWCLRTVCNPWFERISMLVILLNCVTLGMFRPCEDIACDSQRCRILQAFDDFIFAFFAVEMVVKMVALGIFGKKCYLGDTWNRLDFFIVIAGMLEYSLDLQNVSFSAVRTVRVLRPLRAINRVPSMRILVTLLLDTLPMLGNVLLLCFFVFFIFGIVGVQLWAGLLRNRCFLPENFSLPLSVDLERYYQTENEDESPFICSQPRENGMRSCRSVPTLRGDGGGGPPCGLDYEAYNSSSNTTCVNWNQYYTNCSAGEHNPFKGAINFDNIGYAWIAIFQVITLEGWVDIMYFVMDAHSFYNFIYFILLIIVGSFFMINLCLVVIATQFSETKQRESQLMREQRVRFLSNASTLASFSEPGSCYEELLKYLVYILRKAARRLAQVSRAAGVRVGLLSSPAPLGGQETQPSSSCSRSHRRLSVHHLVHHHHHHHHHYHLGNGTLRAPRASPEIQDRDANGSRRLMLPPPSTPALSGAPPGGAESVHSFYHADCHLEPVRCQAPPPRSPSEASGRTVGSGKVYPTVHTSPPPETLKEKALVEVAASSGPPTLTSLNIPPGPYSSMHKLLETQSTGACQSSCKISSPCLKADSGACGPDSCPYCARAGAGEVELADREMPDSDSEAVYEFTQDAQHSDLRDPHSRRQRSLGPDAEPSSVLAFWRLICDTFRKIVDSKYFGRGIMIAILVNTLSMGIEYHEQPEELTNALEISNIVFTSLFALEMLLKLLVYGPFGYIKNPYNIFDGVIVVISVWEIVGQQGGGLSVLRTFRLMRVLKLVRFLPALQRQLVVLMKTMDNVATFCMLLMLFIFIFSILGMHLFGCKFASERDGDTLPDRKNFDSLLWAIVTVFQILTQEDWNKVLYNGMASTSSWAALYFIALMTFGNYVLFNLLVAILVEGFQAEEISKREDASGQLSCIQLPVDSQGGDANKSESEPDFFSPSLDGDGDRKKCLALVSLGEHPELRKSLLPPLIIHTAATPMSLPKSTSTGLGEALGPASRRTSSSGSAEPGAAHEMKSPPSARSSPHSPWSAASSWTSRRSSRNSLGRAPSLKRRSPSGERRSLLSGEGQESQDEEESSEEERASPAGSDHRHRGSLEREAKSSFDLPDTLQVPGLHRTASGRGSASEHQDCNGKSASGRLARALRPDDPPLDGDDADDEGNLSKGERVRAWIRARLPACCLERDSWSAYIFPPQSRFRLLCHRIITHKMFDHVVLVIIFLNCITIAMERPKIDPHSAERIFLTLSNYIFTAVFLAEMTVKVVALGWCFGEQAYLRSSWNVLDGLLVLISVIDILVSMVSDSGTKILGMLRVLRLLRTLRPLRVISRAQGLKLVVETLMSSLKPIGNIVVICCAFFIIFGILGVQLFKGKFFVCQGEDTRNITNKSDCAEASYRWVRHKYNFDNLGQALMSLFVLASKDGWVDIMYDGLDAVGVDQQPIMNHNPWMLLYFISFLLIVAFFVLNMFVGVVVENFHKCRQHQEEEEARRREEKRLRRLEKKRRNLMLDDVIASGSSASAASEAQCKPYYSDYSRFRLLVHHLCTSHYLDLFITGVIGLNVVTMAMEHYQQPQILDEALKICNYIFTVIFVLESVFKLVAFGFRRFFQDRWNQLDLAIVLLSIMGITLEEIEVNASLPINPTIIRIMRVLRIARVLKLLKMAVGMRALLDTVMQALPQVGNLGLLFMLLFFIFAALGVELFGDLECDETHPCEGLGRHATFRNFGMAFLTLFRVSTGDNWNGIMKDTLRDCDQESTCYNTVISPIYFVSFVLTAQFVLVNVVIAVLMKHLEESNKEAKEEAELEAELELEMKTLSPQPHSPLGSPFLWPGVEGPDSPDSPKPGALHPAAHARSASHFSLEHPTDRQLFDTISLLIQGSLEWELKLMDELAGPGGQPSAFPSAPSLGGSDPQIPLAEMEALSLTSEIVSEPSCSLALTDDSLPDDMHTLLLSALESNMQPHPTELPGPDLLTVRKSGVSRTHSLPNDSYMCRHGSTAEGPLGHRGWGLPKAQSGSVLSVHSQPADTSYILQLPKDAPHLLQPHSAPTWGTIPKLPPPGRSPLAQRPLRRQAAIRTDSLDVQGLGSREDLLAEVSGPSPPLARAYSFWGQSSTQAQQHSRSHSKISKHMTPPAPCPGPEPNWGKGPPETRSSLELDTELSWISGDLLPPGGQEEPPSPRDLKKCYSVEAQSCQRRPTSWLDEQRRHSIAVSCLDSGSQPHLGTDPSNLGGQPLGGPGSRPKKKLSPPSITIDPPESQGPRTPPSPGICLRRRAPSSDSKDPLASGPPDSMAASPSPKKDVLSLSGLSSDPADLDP
Sequence of human α1H T-type channels (O95180 whole entry): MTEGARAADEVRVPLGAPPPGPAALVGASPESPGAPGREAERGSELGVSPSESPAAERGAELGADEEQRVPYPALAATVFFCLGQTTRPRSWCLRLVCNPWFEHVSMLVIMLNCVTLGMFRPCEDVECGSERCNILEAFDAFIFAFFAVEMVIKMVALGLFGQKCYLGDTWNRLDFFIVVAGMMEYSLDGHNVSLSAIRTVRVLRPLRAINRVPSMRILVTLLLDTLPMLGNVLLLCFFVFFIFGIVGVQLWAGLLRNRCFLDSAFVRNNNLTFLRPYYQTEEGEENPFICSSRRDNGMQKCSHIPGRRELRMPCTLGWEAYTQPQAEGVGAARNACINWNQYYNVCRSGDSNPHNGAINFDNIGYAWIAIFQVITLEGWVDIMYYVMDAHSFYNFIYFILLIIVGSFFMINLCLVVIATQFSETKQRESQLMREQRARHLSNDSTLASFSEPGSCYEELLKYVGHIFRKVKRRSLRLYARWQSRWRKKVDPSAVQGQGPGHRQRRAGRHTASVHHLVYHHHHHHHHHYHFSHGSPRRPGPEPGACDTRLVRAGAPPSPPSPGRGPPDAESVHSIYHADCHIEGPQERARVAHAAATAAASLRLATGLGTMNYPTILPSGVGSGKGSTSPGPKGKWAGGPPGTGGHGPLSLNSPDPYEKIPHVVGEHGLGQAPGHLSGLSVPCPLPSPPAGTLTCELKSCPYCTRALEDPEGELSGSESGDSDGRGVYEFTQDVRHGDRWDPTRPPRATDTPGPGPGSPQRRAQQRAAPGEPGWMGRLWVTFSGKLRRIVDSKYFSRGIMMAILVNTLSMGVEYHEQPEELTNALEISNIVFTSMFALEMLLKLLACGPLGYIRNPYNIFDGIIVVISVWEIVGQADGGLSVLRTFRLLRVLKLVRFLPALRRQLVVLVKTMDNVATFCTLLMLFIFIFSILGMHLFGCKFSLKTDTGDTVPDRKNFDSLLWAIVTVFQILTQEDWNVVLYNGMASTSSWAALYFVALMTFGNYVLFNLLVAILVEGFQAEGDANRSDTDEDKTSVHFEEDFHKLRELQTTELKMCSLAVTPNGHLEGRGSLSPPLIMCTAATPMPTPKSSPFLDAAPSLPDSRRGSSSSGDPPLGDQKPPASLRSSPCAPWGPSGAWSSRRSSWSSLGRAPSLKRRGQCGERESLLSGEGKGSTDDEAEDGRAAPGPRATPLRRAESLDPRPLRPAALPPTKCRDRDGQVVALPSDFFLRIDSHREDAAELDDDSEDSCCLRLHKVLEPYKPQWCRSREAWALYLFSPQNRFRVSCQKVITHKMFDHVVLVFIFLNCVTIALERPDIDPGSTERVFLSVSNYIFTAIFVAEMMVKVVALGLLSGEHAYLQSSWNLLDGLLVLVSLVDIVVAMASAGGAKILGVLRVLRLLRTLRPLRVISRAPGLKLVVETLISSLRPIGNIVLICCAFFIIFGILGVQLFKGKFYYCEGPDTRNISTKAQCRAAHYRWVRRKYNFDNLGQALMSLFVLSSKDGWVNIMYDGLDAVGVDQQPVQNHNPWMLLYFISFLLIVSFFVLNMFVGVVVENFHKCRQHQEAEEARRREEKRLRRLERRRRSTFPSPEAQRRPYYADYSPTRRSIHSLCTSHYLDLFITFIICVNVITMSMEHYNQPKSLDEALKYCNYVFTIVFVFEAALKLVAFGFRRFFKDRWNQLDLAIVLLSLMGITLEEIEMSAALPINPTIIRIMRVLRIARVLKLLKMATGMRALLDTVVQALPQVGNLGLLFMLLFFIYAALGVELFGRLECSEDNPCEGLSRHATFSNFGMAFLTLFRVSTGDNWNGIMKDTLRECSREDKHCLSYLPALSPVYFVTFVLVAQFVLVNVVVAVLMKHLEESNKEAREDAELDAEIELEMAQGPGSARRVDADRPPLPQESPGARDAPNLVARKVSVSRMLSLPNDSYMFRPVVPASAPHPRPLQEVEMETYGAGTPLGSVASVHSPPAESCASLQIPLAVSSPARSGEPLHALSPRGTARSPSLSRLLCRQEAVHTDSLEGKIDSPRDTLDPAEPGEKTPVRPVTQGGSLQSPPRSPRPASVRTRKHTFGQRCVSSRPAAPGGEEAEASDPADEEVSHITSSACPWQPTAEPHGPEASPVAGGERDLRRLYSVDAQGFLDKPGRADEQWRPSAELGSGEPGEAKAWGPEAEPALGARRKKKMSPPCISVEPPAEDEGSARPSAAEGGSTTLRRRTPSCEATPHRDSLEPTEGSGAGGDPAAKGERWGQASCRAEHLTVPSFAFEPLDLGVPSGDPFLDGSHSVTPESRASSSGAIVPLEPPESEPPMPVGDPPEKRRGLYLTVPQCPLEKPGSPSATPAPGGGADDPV

Row | SMILES | IC50 [1] | IC50 [2] | IC50 [3]
1 | O=C(NC[C@H]1C[C@H](S(=O)(=O)c2cccc(C(F)(F)F)c2)C1)c1cc(F)cc(Cl)c1 [Compound 370, 3-chloro-5-fluoro-N-(((1R,3R)-3-(3-(trifluoromethyl)phenylsulfonyl)cyclobutyl)methyl)benzamide] | 0.68 µM | 0.64 µM | 290 nM
2 | O=C(NC[C@H]1C[C@H](S(=O)(=O)c2cccc(C(F)(F)F)c2)C1)c1cnc(C(F)(F)F)nc1 [Compound 371, 2-(trifluoromethyl)-N-(((1R,3R)-3-(3-(trifluoromethyl)phenylsulfonyl)cyclobutyl)methyl)pyrimidine-5-carboxamide] | 1.06 µM | 0.66 µM | 1160 nM
3 | O=C(NC[C@H]1C[C@H](S(=O)(=O)c2cccc(C(F)(F)F)c2)C1)c1cc(C(F)(F)F)ccn1 [Compound 372, 4-(trifluoromethyl)-N-(((1R,3R)-3-(3-(trifluoromethyl)phenylsulfonyl)cyclobutyl)methyl)picolinamide] | 7.17 µM | 9.63 µM | 260 nM
4 | O=C(NC[C@H]1C[C@H](S(=O)(=O)c2cccc(C(F)(F)F)c2)C1)c1ccc(OC(F)(F)F)cc1 [Compound 373, 4-(trifluoromethoxy)-N-(((1R,3R)-3-(3-(trifluoromethyl)phenylsulfonyl)cyclobutyl)methyl)benzamide] | 0.82 µM | 0.61 µM | 250 nM
5 | O=C(NC[C@H]1C[C@@H](S(=O)(=O)c2cccc(C(F)(F)F)c2)C1)c1ccc(F)c(C(F)(F)F)c1 [Compound 377, 4-fluoro-3-(trifluoromethyl)-N-(((1S,3S)-3-(3-(trifluoromethyl)phenylsulfonyl)cyclobutyl)methyl)benzamide] | 2.34 µM | 1.04 µM | 460 nM
6 | Cn1nc(C(F)(F)F)cc1C(=O)NC[C@H]1C[C@@H](S(=O)(=O)c2cccc(C(F)(F)F)c2)C1 [Compound 378, 1-methyl-3-(trifluoromethyl)-N-(((1S,3S)-3-(3-(trifluoromethyl)phenylsulfonyl)cyclobutyl)methyl)-1H-pyrazole-5-carboxamide] | 2.79 µM | 1.63 µM | 1130 nM
7 | O=C(NC[C@H]1C[C@@H](S(=O)(=O)c2cccc(C(F)(F)F)c2)C1)c1ccc(F)c(Cl)c1 [Compound 379, 3-chloro-4-fluoro-N-(((1S,3S)-3-(3-(trifluoromethyl)phenylsulfonyl)cyclobutyl)methyl)benzamide] | 1.81 µM | 0.3 µM | 830 nM
8 | O=C(NC[C@H]1C[C@@H](S(=O)(=O)c2cccc(C(F)(F)F)c2)C1)c1ccnc(C(F)(F)F)n1 [Compound 383, 2-(trifluoromethyl)-N-(((1S,3S)-3-(3-(trifluoromethyl)phenylsulfonyl)cyclobutyl)methyl)pyrimidine-4-carboxamide] | > 10 µM | 5.95 µM | 1360 nM
9 | O=C(NC[C@H]1C[C@@H](S(=O)(=O)c2cccc(C(F)(F)F)c2)C1)c1cn2cc(C(F)(F)F)ccc2n1 [Compound 384, 6-(trifluoromethyl)-N-(((1S,3S)-3-(3-(trifluoromethyl)phenylsulfonyl)cyclobutyl)methyl)imidazo[l,2-a]pyridine-2-carboxamide] | > 10 µM | 4.74 µM | 960 nM
10 | O=C(NC[C@H]1C[C@@H](S(=O)(=O)c2cccc(C(F)(F)F)c2)C1)c1ccc(C(F)(F)F)cn1 [Compound 385, 5-(trifluoromethyl)-N-(((1S,3S)-3-(3-(trifluoromethyl)phenylsulfonyl)cyclobutyl)methyl)picolinamide] | > 10 µM | > 10 µM | 710 nM
11 | O=C(NC[C@H]1C[C@@H](S(=O)(=O)c2cccc(C(F)(F)F)c2)C1)c1ccnc(C(F)(F)F)c1 [Compound 386, 2-(trifluoromethyl)-N-(((1S,3S)-3-(3-(trifluoromethyl)phenylsulfonyl)cyclobutyl)methyl)isonicotinamide] | 0.49 µM | 0.27 µM | 2370 nM
12 | O=C(NC[C@H]1C[C@@H](S(=O)(=O)c2cccc(C(F)(F)F)c2)C1)c1ccnn1CC(F)(F)F [Compound 387, 1-(2,2,2-trifluoroethyl)-N-(((1S,3S)-3-(3-(trifluoromethyl)phenylsulfonyl)cyclobutyl)methyl)-1H-pyrazole-5-carboxamide] | 0.72 µM | 0.71 µM | 4220 nM
13 | O=C(NC[C@H]1C[C@H](S(=O)(=O)c2cc(F)cc(C(F)(F)F)c2)C1)c1ccc(F)c(C(F)(F)F)c1 [Compound 389, 4-fluoro-N-(((1R,3R)-3-(3-fluoro-5-(trifluoromethyl)phenylsulfonyl)cyclobutyl)methyl)-3-(trifluoromethyl) benzamide] | 6.08 µM | 8.98 µM | 270 nM
14 | O=C(Nc1ccc(Oc2ccc(F)c(Cl)c2)nc1)[C@H]1C[C@H](S(=O)(=O)c2cccc(C(F)(F)F)c2)C1 [Compound 399, (1R,3R)-N-(6-(3-chloro-4-fluorophenoxy)pyridin-3-yl)-3-(3-(trifluoromethyl)phenylsulfonyl)cyclobutane carboxamide] | 1.25 µM | 1.06 µM | 1140 nM
15 | O=C(Nc1ccc(Oc2ccc(C(F)(F)F)cn2)nc1)[C@H]1C[C@H](S(=O)(=O)c2cccc(C(F)(F)F)c2)C1 [Compound 400, (1R,3R)-3-(3-(trifluoromethyl)phenylsulfonyl)-N-(6-(5-(trifluoromethyl)pyridin-2-yloxy)pyridin-3-yl) cyclobutanecarboxamide] | > 10 µM | 5.92 µM | 3830 nM
16 | O=C(Nc1ccc(Oc2ccc(C(F)(F)F)nc2)nc1)[C@H]1C[C@H](S(=O)(=O)c2cccc(C(F)(F)F)c2)C1 [Compound 401, (1R,3R)-3-(3-(trifluoromethyl)phenylsulfonyl)-N-(6-(6-(trifluoromethyl)pyridin-3-yloxy)pyridin-3-yl) cyclobutanecarboxamide] | > 10 µM | 9.26 µM | 1430 nM
17 | CC(C)(NC(=O)[C@H]1C[C@H](S(=O)(=O)c2cccc(C(F)(F)F)c2)C1)c1ccc(F)cc1 [Compound 402, (1R,3R)-N-(2-(4-fluorophenyl)propan-2-yl)-3-(3-(trifluoromethyl)phenylsulfonyl)cyclobutane carboxamide] | 0.64 µM | 0.57 µM | 1700 nM
18 | COc1ccc(C(C)(C)NC(=O)[C@H]2C[C@H](S(=O)(=O)c3cccc(C(F)(F)F)c3)C2)cc1 [Compound 403, (1R,3R)-N-(2-(4-methoxyphenyl)propan-2-yl)-3-(3-(trifluoromethyl)phenylsulfonyl)cyclobutane carboxamide] | 1.19 µM | 1.04 µM | 1460 nM
19 | Cn1nc(C(F)(F)F)cc1NC(=O)[C@H]1C[C@H](S(=O)(=O)c2cccc(C(F)(F)F)c2)C1 [Compound 407, (1R,3R)-N-(1-methyl-3-(trifluoromethyl)-1H-pyrazol-5-yl)-3-(3-(trifluoromethyl)phenylsulfonyl) cyclobutanecarboxamide] | > 10 µM | 1.66 µM | 5630 nM
20 | Cn1nc(C(F)(F)F)cc1NC(=O)[C@H]1C[C@@H](S(=O)(=O)c2cccc(C(F)(F)F)c2)C1 [Compound 408, (1S,3S)-N-(1-methyl-3-(trifluoromethyl)-1H-pyrazol-5-yl)-3-(3-(trifluoromethyl)phenylsulfonyl)cyclobutane carboxamide] | 8 µM | 0.42 µM | 2490 nM
